Measured values from PubChem BioAssay AID248 (DTP/NCI, 2004).
Values joined by “and” are separate entries in the source; they are usually repeats but may differ in a detail not shown here. Equal entries are not always repeated. Toxic doses and inconclusive results are not listed. No stated cut-off is given here; in the data, active means T/C of 150% or more; inactive means T/C below 125%.

Tested on: L1210 leukemia ip in BDF1 mice, survival T/C
Test: NCI In Vivo Anticancer Drug Screen. Data for tumor model L1210 Leukemia (intraperitoneal) in B6D2F1 (BDF1) mice
Settings: endpoint: mean survival time, higher = longer survival
Procedure, shortened: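 Ratio derived from survival: compound-dosed mice over vehicle-dosed mice, all bearing a transplantable tumor.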

[1] = dose: 6.25 mg/kg/injection, schedule: Q01DX009 (ip), vehicle: saline
[2] = dose: 50.0 mg/kg/injection, schedule: Q01DX001 (ip), vehicle: saline
[3] = dose: 50.0 mg/kg/injection, schedule: Q01DX009 (ip), vehicle: saline
[4] = dose: 100.0 mg/kg/injection, schedule: Q01DX001 (ip), vehicle: saline
[5] = dose: 200.0 mg/kg/injection, schedule: Q01DX001 (ip), vehicle: saline
[6] = dose: 400.0 mg/kg/injection, schedule: Q01DX001 (ip), vehicle: saline
[7] = dose: 100.0 mg/kg/injection, schedule: Q04DX002 (ip), vehicle: Klucel (hydroxypropylcellulose) (HPC)
[8] = dose: 200.0 mg/kg/injection, schedule: Q04DX002 (ip), vehicle: Klucel (hydroxypropylcellulose) (HPC)
[9] = dose: 400.0 mg/kg/injection, schedule: Q04DX002 (ip), vehicle: Klucel (hydroxypropylcellulose) (HPC)
[10] = dose: 100.0 mg/kg/injection, schedule: Q01DX001 (ip), vehicle: acetone
[11] = dose: 100.0 mg/kg/injection, schedule: Q04DX003 (ip), vehicle: saline with Tween-80
[12] = dose: 200.0 mg/kg/injection, schedule: Q04DX003 (ip), vehicle: saline with Tween-80
[13] = dose: 400.0 mg/kg/injection, schedule: Q04DX003 (ip), vehicle: saline with Tween-80
[14] = dose: 75.0 mg/kg/injection, schedule: Q01DX001 (ip), vehicle: saline

Measured: T/C

NC(=S)N/N=C\c1ncnc2ccccc12
inactive: dose: 2.1 mg/kg/injection, schedule: Q03HX032 (ip), vehicle: saline with Tween-80 101 % of control | dose: 3.2 mg/kg/injection, schedule: Q03HX032 (ip), vehicle: saline with Tween-80 107 % of control | dose: 4.8 mg/kg/injection, schedule: Q03HX032 (ip), vehicle: saline with Tween-80 118 % of control | [1] 115 % of control | dose: 7.2 mg/kg/injection, schedule: Q03HX032 (ip), vehicle: saline with Tween-80 91 % of control | [2] 100 % of control | [3] 117 % of control | [4] 112 % of control | [5] 118 % of control | [6] 112 % of control

CCOC(=O)C(O)C1(Cl)CCC(C(C)(C)C)CC1 (stereo unspecified)
inactive: dose: 100.0 mg/kg/injection, schedule: Q04DX002 (ip), vehicle: saline 103 % of control | dose: 200.0 mg/kg/injection, schedule: Q04DX002 (ip), vehicle: saline 106 % of control | dose: 400.0 mg/kg/injection, schedule: Q04DX002 (ip), vehicle: saline 106 % of control

CCOC(=O)COc1cc([N+](=O)[O-])c(Cl)cc1Cl
inactive: [7] 98 % of control | [8] 98 % of control | [9] 98 % of control

COC(=O)c1ccccc1NC(=O)COc1cc(Cl)c(Cl)cc1Cl
inactive: [7] 96 % of control | [8] 89 % of control | [9] 86 % of control

CCC1(O)CC(OC2CC(N(C)C)C(OC3CC(O)C(OC4CC(O)C(O)C(C)O4)C(C)O3)C(C)O2)c2c(cc3c(c2O)C(=O)c2c(O)ccc(O)c2C3=O)C1C(=O)OC (stereo unspecified)
inactive: dose: 1.6 mg/kg/injection, schedule: Q01DX001 (ip), vehicle: saline 98 % of control | dose: 3.2 mg/kg/injection, schedule: Q01DX001 (ip), vehicle: saline 117 % of control | dose: 6.4 mg/kg/injection, schedule: Q01DX001 (ip), vehicle: saline 108 % of control | dose: 12.8 mg/kg/injection, schedule: Q01DX001 (ip), vehicle: saline 124 % of control

Cc1ccc(S(=O)(=O)N(C)c2ccc(I)c(Cl)c2Cl)cc1
inactive: dose: 100.0 mg/kg/injection, schedule: Q04DX003 (ip), vehicle: Klucel (hydroxypropylcellulose) (HPC) 102 % of control | dose: 200.0 mg/kg/injection, schedule: Q04DX003 (ip), vehicle: Klucel (hydroxypropylcellulose) (HPC) 96 % of control | dose: 400.0 mg/kg/injection, schedule: Q04DX003 (ip), vehicle: Klucel (hydroxypropylcellulose) (HPC) 98 % of control

CC(C)CN1CCCC(=O)C(O)CCC1 (stereo unspecified)
inactive: [10] 101 % of control

Nc1nc(N)c(-c2ccc(Cl)c(Cl)c2)c(CO)n1
inactive: [11] 98 % of control | [12] 107 % of control | [13] 117 % of control

IP(c1ccccc1)(c1ccccc1)(c1ccccc1)N1C2CCCCC21 (stereo unspecified)
inactive: dose: 0.15 mg/kg/injection, schedule: Q01DX009 (ip), vehicle: acetone 107 % of control | dose: 0.31 mg/kg/injection, schedule: Q01DX009 (ip), vehicle: acetone 115 % of control | dose: 0.62 mg/kg/injection, schedule: Q01DX009 (ip), vehicle: acetone 115 % of control | dose: 0.62 mg/kg/injection, schedule: Q01DX009 (ip), vehicle: saline 112 % of control | dose: 0.62 mg/kg/injection, schedule: Q04DX003 (ip), vehicle: saline 113 % of control | dose: 1.2 mg/kg/injection, schedule: Q01DX001 (ip), vehicle: acetone 114 % of control | dose: 1.25 mg/kg/injection, schedule: Q01DX009 (ip), vehicle: saline 104 % of control | dose: 1.25 mg/kg/injection, schedule: Q04DX003 (ip), vehicle: saline 93 % of control | dose: 2.5 mg/kg/injection, schedule: Q01DX001 (ip), vehicle: acetone 119 % of control | dose: 2.5 mg/kg/injection, schedule: Q01DX009 (ip), vehicle: saline 114 % of control

COC1C=CC2C3Cc4ccc(O)c5c4C2(CCN3C)C1O5 (stereo unspecified)
inactive: [14] 104 % of control | dose: 150.0 mg/kg/injection, schedule: Q01DX001 (ip), vehicle: saline 103 % of control

CCOC(=O)NCC(C)(CCN1CCOCC1)c1cccc2ccccc12 (stereo unspecified)
inactive: dose: 25.0 mg/kg/injection, schedule: Q04DX003 (ip), vehicle: saline with Tween-80 93 % of control | dose: 50.0 mg/kg/injection, schedule: Q04DX003 (ip), vehicle: saline with Tween-80 97 % of control | dose: 100.0 mg/kg/injection, schedule: Q01DX009 (ip), vehicle: Klucel (hydroxypropylcellulose) (HPC) 94 % of control | [11] 103 % of control

Sc1ccccc1-n1c(-c2ccccc2)ccc1-c1ccccc1
inactive: [2] 96 % of control | [4] 93 % of control | [5] 98 % of control | [6] 87 % of control

CC(C)(C)NNC(C)(C)C
inactive: dose: 9.38 mg/kg/injection, schedule: Q01DX001 (ip), vehicle: other 102 % of control | dose: 18.75 mg/kg/injection, schedule: Q01DX001 (ip), vehicle: other 96 % of control | dose: 37.5 mg/kg/injection, schedule: Q01DX001 (ip), vehicle: other 96 % of control

COC(=O)c1cc(Cl)ccc1OCC(=O)NCc1ccc(Cl)cc1
inactive: [11] 89 % of control | [12] 102 % of control | [13] 88 % of control

CCCCc1c(C)c2c(O)cc(C)cc2oc1=O
inactive: [10] 92 % of control | dose: 200.0 mg/kg/injection, schedule: Q01DX001 (ip), vehicle: acetone 95 % of control | dose: 400.0 mg/kg/injection, schedule: Q01DX001 (ip), vehicle: acetone 92 % of control

CC(=O)[O][Sn]([CH3])([CH3])[CH3]
inactive: dose: 0.18 mg/kg/injection, schedule: Q01DX009 (ip), vehicle: Klucel (hydroxypropylcellulose) (HPC) 93 % of control | dose: 0.37 mg/kg/injection, schedule: Q01DX009 (ip), vehicle: Klucel (hydroxypropylcellulose) (HPC) 96 % of control | dose: 0.75 mg/kg/injection, schedule: Q01DX009 (ip), vehicle: Klucel (hydroxypropylcellulose) (HPC) 104 % of control

O=C(CCCCCl)Nc1cccc2c1C(=O)c1c(c(O)c3ccccc3c1O)C2=O
inactive: [11] 98 % of control | [12] 90 % of control | [13] 90 % of control

CCCCCCCCCCCCOP(N)(=O)OCCCCCCCCCCCC
inactive: [3] 90 % of control | dose: 100.0 mg/kg/injection, schedule: Q01DX009 (ip), vehicle: saline 88 % of control | dose: 100.0 mg/kg/injection, schedule: Q04DX003 (ip), vehicle: saline 94 % of control | dose: 200.0 mg/kg/injection, schedule: Q01DX009 (ip), vehicle: saline 88 % of control | dose: 200.0 mg/kg/injection, schedule: Q04DX003 (ip), vehicle: saline 90 % of control

Cc1cc(-c2ccc([N+](=O)[O-])cc2)cn1-c1ccccc1
inactive: dose: 50.0 mg/kg/injection, schedule: Q04DX002 (ip), vehicle: saline with Tween-80 97 % of control | dose: 100.0 mg/kg/injection, schedule: Q04DX002 (ip), vehicle: saline with Tween-80 97 % of control and 89 % of control | dose: 200.0 mg/kg/injection, schedule: Q04DX002 (ip), vehicle: saline with Tween-80 87 % of control | dose: 400.0 mg/kg/injection, schedule: Q04DX002 (ip), vehicle: saline with Tween-80 96 % of control

ON=C(CCl)CCl
inactive: [1] 89 % of control | dose: 12.5 mg/kg/injection, schedule: Q01DX001 (ip), vehicle: saline 113 % of control | dose: 25.0 mg/kg/injection, schedule: Q01DX001 (ip), vehicle: saline 98 % of control

Cc1ccc(C(=O)n2c(Cl)c(/C=N/NC(N)=S)c3ccccc32)cc1
inactive: dose: 50.0 mg/kg/injection, schedule: Q04DX002 (ip), vehicle: Klucel (hydroxypropylcellulose) (HPC) 87 % of control | [7] 95 % of control

O=C(O)c1ccccc1C(=O)c1ccccc1
inactive: dose: 100.0 mg/kg/injection, schedule: Q01DX001 (ip), vehicle: Klucel (hydroxypropylcellulose) (HPC) 97 % of control | dose: 200.0 mg/kg/injection, schedule: Q01DX001 (ip), vehicle: Klucel (hydroxypropylcellulose) (HPC) 97 % of control | dose: 400.0 mg/kg/injection, schedule: Q01DX001 (ip), vehicle: Klucel (hydroxypropylcellulose) (HPC) 95 % of control

CS(=O)(=O)OCCNCCOS(C)(=O)=O
inactive: dose: 15.0 mg/kg/injection, schedule: Q01DX001 (ip), vehicle: saline 104 % of control | dose: 30.0 mg/kg/injection, schedule: Q01DX001 (ip), vehicle: saline 113 % of control | dose: 60.0 mg/kg/injection, schedule: Q01DX001 (ip), vehicle: saline 106 % of control | [14] 93 % of control
